One series deals with T1, rat liver FBPase (Rattus norvegicus, UniProt P19112).
T1 construct: made in house; host or cells: E. coli BL21
T1 sequence (P19112 2-363 limits assumed): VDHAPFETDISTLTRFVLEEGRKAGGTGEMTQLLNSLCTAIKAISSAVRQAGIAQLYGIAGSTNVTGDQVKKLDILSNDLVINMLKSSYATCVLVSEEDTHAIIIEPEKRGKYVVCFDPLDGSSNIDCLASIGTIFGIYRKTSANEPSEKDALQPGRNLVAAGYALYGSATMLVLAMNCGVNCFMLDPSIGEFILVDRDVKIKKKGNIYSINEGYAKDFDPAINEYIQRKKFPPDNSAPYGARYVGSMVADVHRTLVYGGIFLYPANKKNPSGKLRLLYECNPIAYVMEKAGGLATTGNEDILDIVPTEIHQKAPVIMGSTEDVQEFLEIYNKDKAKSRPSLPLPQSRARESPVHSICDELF
Kind of series: In vitro inhibition of rat liver FBPase. Format: biochemical. The procedure: (§1) Mouse liver FBPase was obtained by homogenizing freshly isolated mouse liver in 100 mM Tris-HCl buffer, pH 7.4, containing 1 mM EGTA, and 10% glycerol. […] This fraction was redissolved in the homogenization buffer and desalted on a PD-10 gel filtration column (Biorad) eluted with same. This partially purified fraction was used for enzyme assays. Both rat liver and mouse liver FBPase were assayed as described for human liver FBPase.

Series [1] concerns the target T2, allosteric AMP binding site of hlFBPase (Homo sapiens, UniProt P09467).
T2 construct: made in house; host or cells: E. coli BL21
T2 sequence (P09467 2-338 limits assumed): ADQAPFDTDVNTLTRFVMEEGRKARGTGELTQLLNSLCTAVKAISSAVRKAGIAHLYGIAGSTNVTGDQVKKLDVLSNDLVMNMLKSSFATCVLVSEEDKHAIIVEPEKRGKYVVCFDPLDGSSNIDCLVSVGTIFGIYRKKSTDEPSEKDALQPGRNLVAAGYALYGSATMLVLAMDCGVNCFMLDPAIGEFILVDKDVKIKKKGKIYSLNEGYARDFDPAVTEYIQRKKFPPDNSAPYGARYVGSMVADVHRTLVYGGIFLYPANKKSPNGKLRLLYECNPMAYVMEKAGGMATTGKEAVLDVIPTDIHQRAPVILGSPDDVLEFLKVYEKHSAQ
Kind of series: AMP site binding: displacement of 3H-AMP from hlFBPase. Particulars: for EC50: 3H-AMP, hlFBPase, read-out: ED50 for AMP displacement; for displacement of AMP from hlFBPase (FIG. 3): result in words. The procedure: To determine whether compounds bind to the allosteric AMP binding site of hlFBPase, the enzyme was incubated with radiolabeled AMP in the presence of a range of test compound concentrations. The reaction mixtures consisted of […] ^3H-AMP (54 mCi/mmol) and […] test compound in 25 mM Tris-HCl, pH 7.4, 100 mM KCl and 1 mM MgCl2. 1.45 mg of homogeneous FBPase (±1 nmole) was added last. After a 1 minute incubation, AMP bound to FBPase was separated from unbound AMP by means of a centrifugal ultrafiltration unit (“Ultrafree-MC”, Millipore) used according to the instructions of the manufacturer. The radioactivity in aliquots (100 μl) of the upper compartment of the unit (the retentate, which contains enzyme and label) and the lower compartment (the filtrate, which contains unbound label) were quantified using a Beckman liquid scintillation counter. The amount of AMP bound to the enzyme was estimated by comparing the counts in the filtrate (the unbound label) to the total counts in the retentate.
(Displacement assays read how much labelled ligand stays bound in the presence of the test substance.)

The target of the next series is T3, mouse liver FBPase (Mus musculus, UniProt Q9QXD6).
T3 construct: This partially purified fraction was used for enzyme assays; from tissue; host or cells: mouse liver
T3 sequence (Q9QXD6 2-338 limits assumed): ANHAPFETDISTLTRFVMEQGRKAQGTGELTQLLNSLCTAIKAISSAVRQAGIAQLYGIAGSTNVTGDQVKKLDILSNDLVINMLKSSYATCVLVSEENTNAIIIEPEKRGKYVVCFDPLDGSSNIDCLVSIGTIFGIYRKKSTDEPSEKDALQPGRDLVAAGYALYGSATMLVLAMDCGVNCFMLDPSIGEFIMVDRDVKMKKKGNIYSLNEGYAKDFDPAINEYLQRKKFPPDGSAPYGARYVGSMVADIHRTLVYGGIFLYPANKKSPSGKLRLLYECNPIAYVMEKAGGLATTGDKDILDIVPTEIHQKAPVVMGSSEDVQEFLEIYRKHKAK
The experiment in a line: In vitro inhibition of mouse liver FBPase. Format: biochemical. The procedure: as §1

The next series concerns rat hepatocytes. The experiment in a line: Inhibition of gluconeogenesis (glucose production from lactate/pyruvate) in rat hepatocytes. The series is classed as cell-based. Particulars: from lactate/pyruvate, isolated rat hepatocytes. The procedure:
Hepatocytes were prepared from overnight fasted Sprague-Dawley rats (250-300 g) according to the procedure of Berry and Friend (Berry, M. N., Friend, D. S., J. Cell. Biol. 1969, 43, 506-520) as modified by Groen (Groen, […]., Eur. J. Biochem. 1982, 122, 87-93). […] Incubations were carried out in a 95% oxygen, 5% carbon dioxide atmosphere in closed, 50-mL Falcon tubes submerged in a rapidly shaking water bath (37° C.). After 1 hour, an aliquot (0.25 mL) was removed, transferred to an Eppendorf tube and centrifuged. 50 μl of supernatant was then assayed for glucose content using a Sigma Glucose Oxidase kit as per the manufacturer's instructions.

Another series addresses T4, human liver FBPase (Homo sapiens, UniProt P09467).
T4 construct: made in house; host or cells: E. coli BL21
T4 sequence (P09467 2-338 limits assumed): T2 sequence (P09467 2-338 limits assumed)
The experiment in a line: Inhibition of human liver FBPase (coupled spectrophotometric assay). Format: biochemical. Particulars: for inhibition of hlFBPase (FIG. 2): result in words.

Series [2] in a line: Estimation of the oral bioavailability of prodrugs of phosphonic acids (urinary recovery). Particulars: rat, estimated from urinary recovery vs intravenous parent. The series is classed as in vivo, rat. The method, then:
Prodrugs were dissolved in 10% ethanol/90% polyethylene glycol (mw 400) and administered by oral gavage at doses of approximately 20 or 40 mg/kg parent compound equivalents to 6-hour fasted, Sprague Dawley rats (220-240 g). The rats were subsequently placed in metabolic cages and urine was collected for 24 hours. The quantity of parent compound excreted into urine was determined by HPLC analysis. An ODS column eluted with a gradient from potassium phosphate buffer, pH 5.5 to acetonitrile was employed for these measurements. Detection was at 310-325 nm. […] Parent compounds were typically dissolved in dimethyl sulfoxide, and administered via the tail vein in animals that were briefly anesthetized with halothane.

As usually defined, the IC50 is the concentration at which inhibition is half-maximal. Low readings indicate higher potency, high ones lower potency. Consider `Nc1ncnc2c1nc(-c1ccc(P(=O)(O)O)o1)n2CCC1CCCCC1` [Compound 2.2, N^9-(2-cyclohexylethyl)-8-(2-(5-phosphono)furanyl)adenine], for which the IC50 is more than 20 µM at rat liver FBPase, more than 20 µM against mouse liver FBPase and 90 µM in the series with rat hepatocytes (Hepatocyte). Besides, in series [1], the EC50 was determined as 35 µM. Also, the “displacement of AMP from hlFBPase (FIG. 3)” value in series [1] is “displaced AMP from hlFBPase in a dose-dependent manner”.

In the case of `CC(C)Cn1c(-c2ccc(P(=O)(O)O)o2)nc2c(N)ncnc21` [Compound 2.6, N^9-isobutyl-8-(2-(5-phosphono)furanyl)adenine], the IC50 in the series on rat hepatocytes is 18 µM.

Take `Nc1ncnc2c1nc(SCP(=O)(O)O)n2CCC1CCCCC1` [Compound 8.1, N^9-(2-cyclohexylethyl)-8-(phosphonomethylthio)adenine]: the IC50 is more than 20 µM on rat liver FBPase, 23 µM at human liver FBPase and more than 20 µM on mouse liver FBPase.

`CC(C)(C)Cn1c(-c2oc(P(=O)(O)O)c(Cl)c2Cl)nc2c(N)ncnc21` [Compound 12.1, 6-amino-N^9-neopentyl-8-(2-(3,4-dichloro-5-phosphono)furanyl)purine]: the IC50 against human liver FBPase is 13 µM; against mouse liver FBPase, more than 100 µM.

At human liver FBPase, `NC(=O)c1ncn([C@@H]2O[C@H](COP(=O)(O)O)[C@@H](O)[C@H]2O)c1N` [ZMP, aminoimidazolecarboxamideriboside monophosphate, reference compound] showed an IC50 of 12 µM. In addition, in series [1], the EC50 is 250 µM and the “displacement of AMP from hlFBPase (FIG. 3)” value was “displaced AMP from hlFBPase in a dose-dependent manner”.

Turning to `CC(C)(C)Cn1c(COCP(=O)(O)O)nc2c(N)ncnc21` [Compound 5.5, N^9-neopentyl-8-(phosphonomethoxymethyl)-adenine], the results for the IC50 at rat liver FBPase, at human liver FBPase and at mouse liver FBPase were more than 20 µM, 10 µM and more than 20 µM, respectively.

`CSc1nc(N)c2nc(-c3ccc(P(=O)(O)O)o3)n(CC(C)C)c2n1` [Compound 11.1, 6-amino-N^9-isobutyl-2-methylthio-8-(2-(5-phosphono)-furanyl)purine]: the IC50 against human liver FBPase was 0.7 µM; on mouse liver FBPase, more than 20 µM.

For the compound `Nc1ncnc2c1nc(NCCP(=O)(O)O)n2[C@@H]1O[C@H](CO)[C@@H](O)[C@H]1O` [Compound 4.1, 8-(2-phosphonoethylamino)-adenosine], the values for the IC50 against rat liver FBPase, at human liver FBPase and against mouse liver FBPase were more than 20 µM, 100 µM and more than 20 µM, respectively.

For `Nc1ncnc2c1nc(-c1ccc(P(=O)(O)O)o1)n2Cc1ccc2ccccc2c1` [Compound 2.3, N^9-(2-naphthylmethyl)-8-(2-(5-phosphono)furanyl)adenine], the IC50 is more than 20 µM against rat liver FBPase, 3.3 µM at human liver FBPase and more than 20 µM on mouse liver FBPase.

For `CN(C)c1ncnc2c1nc(-c1ccc(P(=O)(O)O)o1)n2CCc1ccccc1` [Compound 10.1, 6-Dimethylamino-N^9-phenethyl-8-(2-(5-phosphono)furanyl)purine], the IC50 against rat liver FBPase is more than 20 µM; against human liver FBPase, 50 µM; on mouse liver FBPase, more than 20 µM.

As for `CC1(C)C=CCC(C)(Cn2c(-c3ccc(P(=O)(O)O)o3)nc3c(N)ncnc32)C1` (centres unmarked) [Compound 2.16, N^9-(1,5,5-trimethyl-3-cyclohexenyl)methyl-8-(2-(5-phosphono)furanyl)-adenine], the IC50 on rat liver FBPase is more than 20 µM; against human liver FBPase it was 1.4 µM; against mouse liver FBPase it was more than 20 µM; in the series on rat hepatocytes (Hepatocyte), 12 µM.

As to `CC(C)(CCl)Cn1c(-c2ccc(P(=O)(O)O)o2)nc2c(N)ncnc21` [Compound 2.14, N^9-(1-(3-chloro-2,2-dimethyl)propyl)-8-(2-(5-phosphono)-furanyl)adenine], the IC50 against rat liver FBPase is more than 20 µM; at human liver FBPase, 0.9 µM; against mouse liver FBPase it was more than 20 µM; in the series on rat hepatocytes (Hepatocyte), 7.5 µM.

`CC(C)(CO)Cn1c(-c2ccc(P(=O)(O)O)o2)nc2c(N)ncnc21` [Compound 2.13, N^9-(1-(3-hydroxyl-2,2-dimethyl)propyl)-8-(2-(5-phosphono)-furanyl)adenine]: the IC50 on human liver FBPase is 4.5 µM; at mouse liver FBPase, more than 20 µM; in the series with rat hepatocytes (Hepatocyte), 50 µM. Further, the “inhibition of hlFBPase (FIG. 2)” value at human liver FBPase is “dose-dependent inhibition”.

Regarding `CC(C)(C)Cn1c(-c2ccc(P(=O)(OCOC(=O)C(C)(C)C)OCOC(=O)C(C)(C)C)o2)nc2c(N)ncnc21` [Compound 16.5, 6-Amino-9-neopentyl-8-(2-(5-dipivaloxymethylphosphono)furanyl)purine], the oral bioavailability in series [2] was 5.3%.

`Nc1ncnc2c1nc(-c1ccc(P(=O)(O)O)o1)n2C1CCCC1` [Compound 2.10, N^9-cyclopentyl-8-(2-(5-phosphono)furanyl)adenine]: the values for the IC50 on human liver FBPase, at mouse liver FBPase and in the series with rat hepatocytes (Hepatocyte) were 2 µM, more than 20 µM and 24 µM, respectively.

Regarding `CCn1c(-c2ccc(P(=O)(O)O)o2)nc2c(N)ncnc21` [Compound 2.5, N^9-ethyl-8-(2-(5-phosphono)furanyl)adenine], the “inhibition of hlFBPase (FIG. 2)” value at human liver FBPase is “dose-dependent inhibition”.

`Nc1ncnc2c1ncn2[C@@H]1O[C@H](COP(=O)(O)O)[C@@H](O)[C@H]1O` [AMP, reference compound]: at human liver FBPase, inhibition was half-maximal at 1 µM (IC50) and the “inhibition of hlFBPase (FIG. 2)” value is given as “dose-dependent inhibition”.

The values are drawn from US7285543B2, “Purine inhibitors of fructose-1,6-bisphosphatase” (Metabasis Therapeutics, Inc., priority 1997, dated 2007).
